# Laboratory results published in patent US11491184B2, “Liquids rich in noble gas and methods of their preparation and use” (THE BOARD OF REGENTS OF THE UNIVERSITY OF TEXAS SYSTEM, priority 2013, dated 2022).
# Experiments:
# [1] = cited from earlier work; for concentration dissolved in water: standard temperature and pressure
# [2] = Stated solubility / dissolved concentration of gases and hp-beta-CD; type: physicochemical; settings: room temperature and 1 atm
# [3] = system: apolipoprotein-E (Apo E) knockout (KO) mice; experiment: Electrocardiographic (ECG) data after Xe-rich solution; type: in vivo; settings: KO6w treated with Xe, 6-weeks time point
# From the text: (§1) All animal studies were approved by the Animal Welfare Committee at The University of Texas Health Science Center at Houston. C57BL/6J wild type (WT) and apolipoprotein-E (Apo E) knockout (KO) mice were purchased from Jackson Laboratory (Bar Harbor, Me., USA), see, e.g., Meir et al., 2004, incorporated herein by reference. The control WT mice used were C57BL/6J, which share the same genetic background with the Apo E KO mice. Six- to eight-month-old male WT and KO mice were fed control or high fat diet (Harlan Laboratories, USA) and administered control or Xe-rich solution (200 μl, once a day) and water drink for 6 weeks, since the Apo E KO mice type fed a high fat diet develop atherosclerotic lesions.
# Baseline measurements by echocardiography were obtained before feeding with the high fat diet. Cardiac morphology and function were assessed by serial M-mode echocardiography using a Vevo 770 Imaging System (VisualSonics Inc., Ontario, Canada) equipped with a 30 MHz microprobe. […] Echo data (HR, heart rate; LVID, left ventricular internal dimension; IVS, intra-ventricular septum; LVPW, left ventricular posterior wall; FS, fractional shortening; SV, stroke volume; EF, ejection fraction; CO, cardiac output; LV Vol, LV volume; LV mass corrected) were analyzed with the analysis software (VisualSonics Inc., Ontario, Canada).
# [4] = system: apolipoprotein-E (Apo E) knockout (KO) mice; experiment: Echocardiographic measurements after oral Xe-rich solution, Apo E KO mice on high fat diet; type: in vivo
# From the text: as §1
# Baseline measurements by echocardiography were obtained before feeding with the high fat diet. Cardiac morphology and function were assessed by serial M-mode echocardiography using a Vevo 770 Imaging System (VisualSonics Inc., Ontario, Canada) equipped with a 30 MHz microprobe. M-mode ventricular measurements were taken at 6-weeks after the feeding. Electrocardiographic (ECG) data was obtained. Echo data (HR, heart rate; LVID, left ventricular internal dimension; IVS, intra-ventricular septum; LVPW, left ventricular posterior wall; FS, fractional shortening; SV, stroke volume; EF, ejection fraction; CO, cardiac output; LV Vol, LV volume; LV mass corrected) were analyzed with the analysis software (VisualSonics Inc., Ontario, Canada).
# (§2) Animals were divided into 5 groups (see experiment setting). Echocardiography was used to assess cardiac dimensions and function at baseline, and at 6-weeks following the Xe exposure (FIGS. 1 and 2; Table 1). Cardiac size of WT and KO hearts were determined with LV mass (corrected) and normalized to body weight (mg/g) following 6-weeks of the Xe exposure (FIG. 3A).
# [5] = system: apolipoprotein-E (Apo E) knockout (KO) mice; experiment: Heart weight normalized to body weight after Xe-rich solution; type: in vivo; settings: KO6w Xe vs KO6w vehicle, 6 weeks
# From the text: as §1, §2
# [6] = system: Brain-derived Neurotrophic Factor (BDNF); experiment: BDNF Sandwich ELISA of heart and brain after Xe-rich solution; type: in vivo, mice; settings: KO6w Xe vs vehicle, 6 weeks
# From the text: All animal studies were approved by the Animal Welfare Committee at The University of Texas Health Science Center at Houston. C57BL/6J wild type (WT) and apolipoprotein-E (Apo E) knockout (KO) mice were purchased from Jackson Laboratory (Bar Harbor, Me., USA), see, e.g., Meir et al., 2004, incorporated herein by reference. The control WT mice used were C57BL/6J, which share the same genetic background with the Apo E KO mice. […]
# Fresh frozen heart and brain tissues were slightly thawed on crushed ice to allow dissection of the hearts and brains. […] The protein concentration was determined using a Bradford Protein Assay (Bio-Rad, Calif., USA).
# Except for the heart and brain extracts, the samples (such as plasma) were thawed and clarified at 12,000 rpm for 10 min at 4° C. prior to ELISA assays for β-amyloid per the manufacturer's instructions. BDNF and β-amyloid peptide (Aβ1-40) content were determined by using BDNF Sandwich ELISA Kit (Millipore Corporation, MA, USA) and a Mouse/Rat Amyloid β (1-40) High Specific ELISA Assay Kit (IBLAmerican, Minneapolis, Minn., USA). […] was measured by using SpectroMax Microplate reader (Bio-Tek Instruments) at 450 nm. All samples were analyzed in duplicate.
# [7] = Measurement of Xe dissolved / encapsulated in water and hp-beta-CD; type: physicochemical; settings: 3 atm
# Experimental: Xenon was enclosed into a soluble caged molecules (e.g., cyclodextrin). To remove possible residue molecules from cage, the caged molecular was baked at 40-80° C. under vacuum for overnight. To enclose xenon into caged molecules, xenon was incubated with caged molecular in a sealed vial under 2-10 atm pressure at […]. for overnight to 3 days.
# Pure water was degassed under 20-80 mbar vacuum at room temperature for overnight. Xenon (99.999% Medical grade, Matheson Tri-Gas®, Houston, Tex., USA) was re-dissolved into degassed water by pressure water with 2-10 atm xenon gas at 4° C. for overnight to 3 days.
# Xe-rich-water is composed of Xe directly dissolved in water and caging with hydroxypropyl-beta-cyclodextrin (hp-beta-CD) in water. […]
# To measure the amount of Xe dissolved in a Xe-rich-water. […] The solution was then warmed up to 80° C. in a vial with a silicone-rubber seal (Thermo Scientific SepraSeal® (Thermo Scientific, Hudson, N.H., USA) sealed top for 2 hours. After cooling down to room temperature, a syringe with a 17 gauge needle was inserted into a vial through the silicone-rubber seal. The released Xe gas present in the top spacer formed pressure, which pushed Xe gas into the syringe. The amount of Xe released into syringe was then measured.
# [8] = chronic oral administration; cited from earlier work
# [9] = KO6w Xe vs KO6w vehicle, 6 week time point
molecule,measurement,setting,value
"[Ar] [Ar, Argon]",concentration dissolved in water,[1],about 55 μg/ml
"[Xe] [Xe, Xenon]","Xe in an oil, such as olive oil",[2],about 12 mg Xe/ml
same,"ECG changes in T wave, ST segment and QRS complex (myocardial ischemia)",[3],did not occur
same,concentration dissolved in water,[1],about 600 μg/ml
same,increase in LV mass (corrected),"[4]; KO6w Xe vs KO6w vehicle and KO6w control, 6 weeks, Xe-rich solution 200 μl once a day",blocked
same,"wall thickness increase (IVS, LVPW)","[4]; KO6w Xe vs KO6w vehicle and KO6w/control, 6 weeks",significantly blocked
same,decrease in LV ejection fraction (EF),[4]; [9],significantly blocked
same,decrease in LV fractional shortening (FS),[4]; [9],significantly blocked
same,decrease in cardiac output (CO),[4]; [9],significantly blocked
same,"heart rate (HR) increase, in words","[4]; KO6w given Xe, 6 weeks",blocked
same,heart weight normalized to body weight,[5],Decreased
same,relative BDNF levels in heart,[6],further increased
same,xenon encapsulated in a hp-beta-CD cage,"[7]; −80° C., 0.5 mg/ml of hp-beta-CD",5 mL
same,xenon gas dissolved into 5 ml water,"[7]; degassed water, pure xenon gas, 4° C., 4 hours to overnight",6.5 mL
"CC(O)COC[C@H]1O[C@@H]2O[C@H]3[C@H](O)[C@@H](O)[C@@H](O[C@H]4[C@H](O)[C@@H](O)[C@@H](O[C@H]5[C@H](O)[C@@H](O)[C@@H](O[C@H]6[C@H](O)[C@@H](O)[C@@H](O[C@H]7[C@H](O)[C@@H](O)[C@@H](O[C@H]8[C@H](O)[C@@H](O)[C@@H](O[C@H]1[C@H](O)[C@H]2O)O[C@@H]8COCC(C)O)O[C@@H]7COCC(C)O)O[C@@H]6COCC(C)O)O[C@@H]5COCC(C)O)O[C@@H]4COCC(C)O)O[C@@H]3COCC(C)O (stereo partly drawn) [hp-beta-CD, Hydroxypropyl-beta-cyclodextrin]",Solubility,[1],330 mg/mL
cyclodextrin,acceptably safe dose,[8],"about 1,000 mg/kg/day"
